Data set [1] can be described thus: HepG2 cytotoxicity assay (CellTiter-Glo). To be noted: human, HepG2 cells.
Method: (§1) Cells were seeded in 384-well plates at 1800 cells per well and incubated in a humidified incubator at 37°C, 5% CO2. Compounds were solubilized in 100% DMSO and assayed using a 10-point three-fold serial dilution. Compounds were added 24 hours post cell seeding to a final assay concentration of 1% DMSO and highest compound concentration of 100 μM. CellTiter-Glo® reagent (Promega) was added to 384-well plates after a 72-hour incubation period. Relative luminescent units (RLU) were measured using a Synergy 4 plate reader (Biotek). Raw data were normalized using the average RLU value from negative control (1% DMSO) and expressed as % growth. Growth inhibition curves were fitted using the Levenberg–Marquardt algorithm. The IC50 was defined as the compound concentration that produced 50% of the growth inhibitory response.
For a further data set, the system named is HepG2 human cell line. Put plainly: HepG2 cytotoxicity assay (CellTiter-Glo). Particulars: HepG2 IC50 / HUVEC EC50. For orientation: In ATP-based viability assays light output follows the ATP content of the culture.
Data set [2] has as its system NF-κB nuclear translocation in HUVECs. As to the kind of experiment: NF-κB nuclear translocation assay (high content imaging, p65 NUC/CYT). Type of data set: cell-based, Human. To be noted: for EC50: Homo sapiens, HUVEC; for NF-κB nuclear translocation in response to different inducers vs negative control (1% DMSO): HUVECs stimulated 30 min, 100 ng/mL LPS, 10 μM PMA, 10 μM prostratin, 10 μM calcimycin. As for the experimental part: HUVEC cells were seeded at 2500 cells/well in 384-well plates in EBM^TM-2 Basal Medium plus 2% FBS overnight at 37°C in a humidified 5% CO2 incubator. Compounds (columns 3–22) and DMSO (columns 1, 2, 23 and 24) were added to cells using a JANUS Automated Liquid Handling Workstation (Perkin Elmer). […] Plates were incubated at 37°C for 30 min in a humidified 5% CO2 incubator following addition of compounds and controls.
All washing and immunofluorescence staining steps were performed using an EL406 Automated Washer Dispenser (Biotek). Briefly, cells were fixed with 4% paraformaldehyde at RT for 15 min. Cells were washed and incubated at RT for 30 min in 0.05% Triton X-100, 0.25% IgG-free BSA, 0.25% normal goat serum in Tris-buffered saline. Cells were stained with the p65 Mouse Monoclonal Primary Antibody (Santa Cruz, sc-8008) at a final concentration of 1 μg/mL in TBS, 0.05% Triton X-100,.25% IgG-free BSA and incubated overnight at 4°C. Cells were washed and stained with the Alexa Fluor 488 Goat anti-Mouse IgG (H+L) cross-adsorbed secondary antibody at a final concentration of 4 μg/mL in TBS, 0.05% TritonX-100, 0.25% IgG-free BSA for 1 hr at RT in the dark. Cells were washed and 1 μg/mL of DAPI added. Plates were sealed and imaged with an ImageXpress Micro XLS High Content Screening System (Molecular Devices) using FITC and DAPI channels at 20X magnification. Nine fields were captured for each well.
Images were analyzed using the MetaXpress software (Molecular Devices) by creating a custom analysis program in the Custom Module Editor. Briefly, DAPI was used to identify the nucleus of the cell and a nuclear mask created. A secondary mask was created by enlarging the nucleus mask to identify the whole cell. The whole cell mask was then overlaid on the nucleus mask to identify the cytoplasm. The average p65 (NF-κB) pixel intensities in both the nucleus and cytoplasm were quantified and a value assigned to each. A translocation value was calculated by determining the ratio of the average nuclei intensity to the average cytoplasmic intensity of p65 (NUC/CYT). For assay development, the Kruskal-Wallis non parametric test was used to compare the medians of the different groups after correcting for multiple comparison with Dunn’s multiple comparison test using GraphPad Prism 7.04 software. For assay validation, the mean (μ), standard deviation (SD) and coefficient of variation (CV) for nuclear translocation were calculated for the maximum (TNF-α) and minimum (DMSO) activation control wells, maximum and minimum activation plates as well as CVs for 320 test wells. The Z’ (measure of spread between maximum and minimum control signals) was calculated for each plate using the formula: Z^′=1−3(SDMax+SDMin)/|μMax−μMin|, where max is average maximum signal and min is average minimum signal. The EC50 was defined as the concentration that gave half the maximal response.

Another data set can be described thus: in vitro. To be noted: human.
Where [3] appears, read: 0.5 h, NF-κB nuclear translocation, 10-point 3-fold dose response from 100 μM, 30 min, mean ± SD of three independent experiments (* N = 2), unit inferred, μM, read-out: EC50 = Activity in HUVECs.
[4] abbreviates: HUVECs, representative curve of three experiments, 4-parameter fit, dose response from 100μM, unit inferred, read-out: EC50 (Fig 8 dose response curve).

Read-outs that look alike come from different tables or passages of the source.

Method for HepG2 human cell line: as §1
Method for in vitro: as §1

As to `O=C(/C=C1\C=CS(=O)(=O)C1)c1ccccc1` [IDR-0520796], it took 6.6 ± 1.6 µM to reach half-maximal inhibition in data set [1] (IC50 at 72 h). For the same molecule, in the data set on HepG2 human cell line, the “selectivity index (SI) = IC50/EC50” value was determined as 1.3. The EC50 in data set [2] (setting [3]) came to 5 ± 5.6 µM.

Regarding `CCCCCCCCCCCCCC(=O)O[C@@H]1[C@@H](C)[C@@]2(O)[C@@H](C=C(CO)C[C@]3(O)C(=O)C(C)=C[C@@H]23)[C@@H]2C(C)(C)[C@]12OC(C)=O` [PMA, phorbol myristate acetate, reference compound], the “NF-κB nuclear translocation in response to different inducers vs negative control (1% DMSO)” value in data set [2] (10 ng/mL TNF-α) is recorded as “no difference”.

In turn, `Oc1ccccc1/N=C/c1c(O)c(Br)cc2oc3c(c12)CCCC3` [IDR-0139144] returned an IC50 at 72 h in data set [1] of 18 ± 4.2 µM. Further, in the data set with HepG2 human cell line, the “selectivity index (SI) = IC50/EC50” value was determined as 1.5. Also, the EC50 in data set [2] (setting [3]) came out at 12 ± 10 µM.

In data set [1], `O=[N+]([O-])c1ccc(-c2nc(Cl)oc2-c2ccc([N+](=O)[O-])cc2)cc1` [IDR-0515158] returned an IC50 at 72 h of 86 ± 17 µM. Also, the “selectivity index (SI) = IC50/EC50” value with HepG2 human cell line was found to be 33. Also, the EC50 amounted to 2.6 ± 0.53 µM in data set [2] (0.5 h, read-out: EC50 = Activity in HUVECs) and 2.2 µM in data set [2] (read-out: EC50 (Fig 8 dose response curve)).

Consider `CCOc1cc(C=C(C#N)c2nc(-c3ccc(OC)cc3)cs2)ccc1O` [IDR-0605187], for which, in data set [1], the 50% inhibitory concentration (IC50) at 72 h amounted to 51 ± 31 µM. In addition, the “selectivity index (SI) = IC50/EC50” value with HepG2 human cell line is reported as 8.6. For the same molecule, the EC50 in data set [2] (setting [3]) was 5.9 ± 3.4 µM; in data set [2] (setting [4]), 3.1 µM.

Regarding “lipopolysaccharide [LPS, reference compound]”, the “NF-κB nuclear translocation in response to different inducers vs negative control (1% DMSO)” value in data set [2] (10 ng/mL TNF-α) is recorded as “no difference”.

Turning to `O=c1oc2ccccc2c2nn(Cc3ccccc3)nc12` [IDR-0131600], the 50% inhibitory concentration (IC50) at 72 h in data set [1] turned out to be 32 ± 0.7 µM. Moreover, the “selectivity index (SI) = IC50/EC50” value in the data set with HepG2 human cell line is reported as 1.9. Moreover, the EC50 in data set [2] (setting [3]) stood at 17 ± 3.7 µM.

Regarding `CC(=NNc1nc(Cl)c(C#N)c(Cl)c1Cl)c1ccccn1` [IDR-0112703], the IC50 at 72 h in data set [1] turned out to be 13 ± 5 µM. For the same molecule, in the data set on HepG2 human cell line, the “selectivity index (SI) = IC50/EC50” value is given as 2.1. Further, in data set [2] (setting [3]), the EC50 is 6.3 ± 6 µM.

In turn, `Cc1cc(C)c2c(N)c(C(=O)c3ccc(Br)cc3)sc2n1` [IDR-0112706] registered a concentration for half-maximal inhibition (IC50) at 72 h in data set [1] of 27 ± 3.5 µM. In the data set on HepG2 human cell line, the “selectivity index (SI) = IC50/EC50” value worked out at 2.1. The concentration giving a half-maximal response (EC50) in data set [2] (setting [3]) was found to be 13 ± 4.5 µM.

Regarding `CC(=O)O[C@@]12C[C@@H](C)[C@@]3(O)[C@@H](C=C(CO)C[C@]4(O)C(=O)C(C)=C[C@@H]34)[C@@H]1C2(C)C` [prostratin, reference compound], in data set [2] (10 ng/mL TNF-α), the “NF-κB nuclear translocation in response to different inducers vs negative control (1% DMSO)” value was “no difference”.

Consider `CCOC(=O)C(Cc1ccccc1)NC(=O)c1ccccc1` (centres unmarked) [IDR-0517069], for which the IC50 at 72 h in data set [1] is over 100 µM. Besides, the “selectivity index (SI) = IC50/EC50” value with HepG2 human cell line is over 10. Also, the EC50 in data set [2] (setting [3]) turned out to be 10 ± 1.6 µM; in data set [2] (setting [4]) it was 8.1 µM.

Regarding `COc1ccc(Br)cc1/C=C(\C#N)c1nc2ccc(C)cc2[nH]1` [IDR-0605188], the IC50 at 72 h in data set [1] amounted to 17 ± 13 µM. Further, the “selectivity index (SI) = IC50/EC50” value in the data set with HepG2 human cell line came out at 3.6. The EC50 in data set [2] (setting [3]) came out at 4.7 ± 3.8 µM.

`CCCCNCCCCOc1ccc2ccccc2c1` [IDR-0137875] yielded an IC50 at 72 h in data set [1] of 16 ± 0.71 µM. Besides, the “selectivity index (SI) = IC50/EC50” value with HepG2 human cell line was 1.1. The EC50 in data set [2] (setting [3]) is 15 ± 3 µM.

Consider `Nc1ccc2c(c1)Cc1cc([N+](=O)[O-])ccc1-2` [IDR-0113345], for which, in the data set on HepG2 human cell line, the “selectivity index (SI) = IC50/EC50” value came to 6.3. This molecule also came in with an IC50 in the data set “in vitro” of 54 ± 5 µM. Moreover, in data set [2] (setting [3]), the concentration giving a half-maximal response (EC50) came out at 8.6 ± 8.9 µM.

Take `Cc1cc(OCCCNCCO)cc(C)c1Cl` [IDR-0137368]: the concentration for half-maximal inhibition (IC50) at 72 h in data set [1] was found to be 19 ± 4.9 µM. The “selectivity index (SI) = IC50/EC50” value in the data set with HepG2 human cell line was determined as 1.1. Also, the EC50 in data set [2] (setting [3]) worked out at 17 ± 14 µM.

In data set [1], `CN(C)c1ccc(/C=C2\SC(=S)N(N)C2=O)cc1` [IDR-0605186] showed an IC50 at 72 h of over 50 µM. Besides, the “selectivity index (SI) = IC50/EC50” value in the data set with HepG2 human cell line is reported as over 3.3. Also, the EC50 in data set [2] (setting [3]) is 15 ± 5.9 µM.

For `O=C1NC(=S)SC1=Cc1ccc(O)cc1O` [IDR-0133275], in data set [1], the concentration for half-maximal inhibition (IC50) at 72 h was over 100 µM. Besides, the “selectivity index (SI) = IC50/EC50” value with HepG2 human cell line is given as over 5.5. For the same molecule, the half-maximal effective concentration (EC50) in data set [2] (setting [3]) turned out to be 18 ± 1.1 µM.

Take `COC(=O)C1=C(C)OC(N)=C(C#N)C1c1ccc(Cl)c(Cl)c1` (centres unmarked) [IDR-0122120]: in data set [1], the 50% inhibitory concentration (IC50) at 72 h is 40 ± 5 µM. The “selectivity index (SI) = IC50/EC50” value with HepG2 human cell line is given as 6.1. The EC50 in data set [2] (setting [3]) was 6.6 ± 8.1 µM.

On to `CNc1ccc2oc(C[C@H]3O[C@@]4(CC[C@H]3C)O[C@H]([C@H](C)C(=O)c3ccc[nH]3)[C@H](C)C[C@H]4C)nc2c1C(=O)O` [calcimycin, reference compound], for which, in data set [2] (10 ng/mL TNF-α), the “NF-κB nuclear translocation in response to different inducers vs negative control (1% DMSO)” value is listed as “no difference”.

For the molecule `N#Cc1c(Cl)nc(N2CCOCC2)c(Cl)c1Cl` [IDR-0112566], the concentration for half-maximal inhibition (IC50) at 72 h in data set [1] turned out to be 28 ± 0.7 µM. In the data set with HepG2 human cell line, the “selectivity index (SI) = IC50/EC50” value was 7.4. Besides, the concentration for a half-maximal effect (EC50) stood at 3.8 ± 1.4 µM in data set [2] (setting [3]) and 2.1 µM in data set [2] (setting [4]).

With `Cc1nn(-c2ccccc2)c2c1C(c1ccc(Cl)c(Cl)c1)C(C#N)=C(N)O2` (centres unmarked) [IDR-0516961], the 50% inhibitory concentration (IC50) at 72 h in data set [1] was 46 ± 18 µM. The “selectivity index (SI) = IC50/EC50” value in the data set on HepG2 human cell line is 1.8. The concentration for a half-maximal effect (EC50) in data set [2] (setting [3]) worked out at 25 ± 17 µM.

For the molecule TNF-α, in data set [2] (10 ng/mL TNF-α), the “NF-κB nuclear translocation in response to different inducers vs negative control (1% DMSO)” value was “most robust NF-κB nuclear translocation”. Further, in data set [2] (HUVECs, 10 ng/mL TNF-α, fixed at 15, 30, 45 and 60 min), the “time of maximum NF-κB activation post stimulation” value is 30 min. For the same molecule, the “EC50 of NF-κB nuclear translocation” value in data set [2] (HUVECs, 10-point 3-fold dilutions from 100 ng/mL, 30 min, across three independent experiments) lay within 0.3 to 0.6 ng/mL.

In turn, `O=C1C(=Cc2ccc(-c3ccc(Cl)cc3)o2)SC(=S)N1Cc1ccco1` [IDR-0518296] showed an IC50 at 72 h in data set [1] of 17 ± 12 µM. The “selectivity index (SI) = IC50/EC50” value with HepG2 human cell line turned out to be 7.1. The EC50 in data set [2] (setting [3]) was 2.4 ± 1.4 µM.

In general, IC50 refers to the concentration needed to halve the response being measured. Higher therefore signals weaker potency in that assay. What is called EC50 is the midpoint of the concentration-response curve.
